Consider 32 molecules from patent US20240173419A1, “CDK2 DEGRADERS AND USES THEREOF” (Kymera Therapeutics, Inc., priority 2022, published 2024).

This assay has as its target T1, CDK2 (Homo sapiens, UniProt P24941).
T1 construct: endogenous in cells; host or cells: MKN1 cells
The experiment in a line: CDK2 degradation in MKN1 cells (AlphaLISA). In kind it is cell-based. Conditions: for CDK2 degradation 14 h: Average Dmax % / DC50: 14 h incubation; for DC50: read-out: CDK2 degradation 14 h: Mean external-Abs DC50. The gist of the method:
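DC50 from four-parameter logistic fit of AlphaLISA CDK2 signal, corrected for no-cell wells. Lysates came from MKN1 cells, 2e4 per well, exposed 14 h at 37° C to compound at 0.001 nM-10 μM (1:5 series, 11 doses) in 0.1% DMSO.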
In general terms: Bead proximity is the source of the signal in Alpha formats.

For `Cn1c(=O)n(C2CCC(=O)NC2=O)c2cccc(CCCOCCOCC(=O)N3CCC(Nc4ncc5cc(C(F)F)c(=O)n([C@@H]6CCC[C@]6(C)O)c5n4)CC3)c21` (stereo partly shown) [I-499], the “CDK2 degradation 14 h: Average Dmax %” value is “D (D (<25%))” and the DC50 (as a rule, the concentration at which degradation of the target reaches its halfway point) was greater than 1000 nM.
For `Cc1cc(S(=O)(=O)N[C@H]2CC[C@H](OCCN3CCC(c4ccc5c(c4)n(C)c(=O)n5C4CCC(=O)NC4=O)CC3)CC2)ccc1Nc1ncc2cc(Cl)c(=O)n(C3CCCC3)c2n1` (stereo partly shown) [I-419], in that order: “A (A (>75% o))” and less than 100 nM.
For `Cc1cc(S(=O)(=O)C2CCN(CCCN3CCN(c4cccc5c4n(C)c(=O)n5C4CCC(=O)NC4=O)CC3)CC2)ccc1Nc1ncc2cc(Cl)c(=O)n(C(C)C)c2n1` (stereo not shown) [I-47], in that order: “A (A (>75% o))” and less than 100 nM.
For `Cc1cc(S(=O)(=O)C2CCC3(CC2)CN(CC2CCN(c4ccc5c(c4)n(C)c(=O)n5C4CCC(=O)NC4=O)CC2)C3)ccc1Nc1ncc2cc(Cl)c(=O)n(C3CCCC3)c2n1` (stereo not shown) [I-67], in that order: “A (A (>75% o))” and 100 to 500 nM.
`Cc1cc(S(=O)(=O)C2CCC(N3CC4(CCN(c5cccc6c5n(C)c(=O)n6C5CCC(=O)NC5=O)CC4)C3)CC2)ccc1Nc1ncc2c(n1)N(C1CCCC1)C(=O)C21CC1` (stereo not shown) [I-39]: the “CDK2 degradation 14 h: Average Dmax %” value is listed as “B (B (>50% -75%))” and the DC50 was less than 100 nM.
Turning to `Cc1cc(S(=O)(=O)NC2CCC(F)(CN3CCN(c4ccc(C5CCC(=O)NC5=O)cc4F)CC3)CC2)ccc1Nc1ncc(C(F)(F)F)c(N2CCC[C@](C)(O)C2)n1` (stereo partly shown) [I-815], the “CDK2 degradation 14 h: Average Dmax %” value is “A (A (>75% o))” and the DC50 was less than 100 nM.
For `Cc1cc(S(=O)(=O)NC(C)COC2CCC(CN3CCN(c4ccc5c(c4F)n(C)c(=O)n5C4CCC(=O)NC4=O)CC3)CC2)ccc1Nc1ncc(C(F)(F)F)c(N2CCCC(C)(O)C2)n1` (stereo not shown) [I-846], in that order: “A (A (>75% o))” and less than 100 nM.
For `CC1(O)CCCN(c2nc(Nc3ccc(S(=O)(=O)NC4CCC(CN5CCN(c6ccc(C7CCC(=O)NC7=O)c(Cl)c6)CC5)CC4)cc3C(F)F)ncc2C(F)(F)F)C1` (stereo not shown) [I-1104], in that order: “A (A (>75% o))” and less than 100 nM.
For `Cc1cc(S(=O)(=O)C2CCN(CCN3CCN(c4cccc5c4n(C)c(=O)n5C4CCC(=O)NC4=O)CC3)CC2)ccc1Nc1ncc2cc(Cl)c(=O)n(C3CCCC3)c2n1` (stereo not shown) [I-64], in that order: “A (A (>75% o))” and less than 100 nM.
`CC1CN(CC2CCN(c3ccc(C4CCC(=O)NC4=O)c(F)c3)CC2)CCC1NS(=O)(=O)c1ccc(Nc2ncc(C(F)(F)F)c(N3CCCC(C)(O)C3)n2)c(F)c1` (stereo not shown) [I-1062]: the “CDK2 degradation 14 h: Average Dmax %” value is given as “A (A (>75% o))” and the DC50 was less than 100 nM.
For `Cc1cc(S(=O)(=O)NCCOCCOCCCc2ccc3c(c2)n(C)c(=O)n3C2CCC(=O)NC2=O)ccc1Nc1ncc2cc(C(F)F)c(=O)n(C3CCCC3(C)O)c2n1` (stereo not shown) [I-484], in that order: “A (A (>75% o))” and less than 100 nM.
For `Cc1cc(S(=O)(=O)C2CC3(CCN(CC4CCN(c5cccc(NC6CCC(=O)NC6=O)c5F)CC4)CC3)C2)ccc1Nc1ncc2cc(Cl)c(=O)n(C3CCCC3)c2n1` (stereo not shown) [I-71], in that order: “A (A (>75% o))” and 100 to 500 nM.
For `Cc1cc(S(=O)(=O)C2CC3(CCN(CC4CCN(c5ccc6c(c5F)n(C)c(=O)n6C5CCC(=O)NC5=O)CC4)CC3)C2)ccc1Nc1ncc(C(F)(F)F)c(N2CCC(C(C)(C)O)C2)n1` (stereo not shown) [I-505], in that order: “A (A (>75% o))” and less than 100 nM.
Consider `Cc1cc(S(=O)(=O)N[C@H]2C[C@H](N3CCN(CC4CCN(c5ccc(NC6CCC(=O)NC6=O)cc5C)CC4)CC3)C2)ccc1Nc1ncc2ccc(=O)n(C3CCCC3)c2n1` (stereo partly shown) [I-276], for which the “CDK2 degradation 14 h: Average Dmax %” value is reported as “A (A (>75% o))” and the DC50 was less than 100 nM.
For `Cc1cc(S(=O)(=O)NC2(C)CCC(CN3CCN(c4ccc(C5CCC(=O)NC5=O)cc4F)CC3)CC2)ccc1Nc1ncc(C(F)(F)F)c(N2CCC[C@](C)(O)C2)n1` (stereo partly shown) [I-814], in that order: “A (A (>75% o))” and less than 100 nM.
For `Cc1cc(S(=O)(=O)N2CCC(N(C)CC3CCN(c4cccc5c4n(C)c(=O)n5C4CCC(=O)NC4=O)CC3)CC2)ccc1Nc1ncc2cc(Cl)c(=O)n(C3CCCC34CC4)c2n1` (stereo not shown) [I-359], in that order: “A (A (>75% o))” and less than 100 nM.
Take `Cc1cc(S(=O)(=O)N[C@H](C)CO[C@H]2CC[C@H](CN3CCN(c4cccc5c4n(C)c(=O)n5C4CCC(=O)NC4=O)CC3)CC2)ccc1Nc1ncc(C(F)(F)F)c(N2CCC[C@](C)(O)C2)n1` (stereo partly drawn) [I-766, N-[(1R)-2-[4-[[4-[1-(2,6-dioxo-3-piperidyl)-3-methyl-2-oxo-benzimidazol-4-yl]piperazin-1-yl]methyl]cyclohexoxy]-1-methyl-ethyl]-4-[[4-[(3S)-3-hydroxy-3-methyl-1-piperidyl]-5-(trifluoromethyl)pyrimidin-2-yl]amino]-3-methyl-benzenesulfonamide]: the DC50 was less than 100 nM. Further, the Dmax (commonly the greatest extent of degradation seen) (MKN-1, 14 h incubation) was greater than 75%.
For `Cc1cc(S(=O)(=O)C2CC3(CCN(CC4CCN(c5cccc(N6CCC(=O)NC6=O)c5)CC4)CC3)C2)ccc1Nc1ncc2cc(Cl)c(=O)n(C3CCCC3)c2n1` [I-78], the “CDK2 degradation 14 h: Average Dmax %” value is on record as “D (D (<25%))” and the DC50 is greater than 1000 nM.
For `Cc1cc(S(=O)(=O)NC2CCC(CN3CCN(c4ccc(C5CCC(=O)NC5=O)c(F)c4)CC3)CC2)ncc1Nc1ncc(C(F)(F)F)c(N2CCCC(C)(O)C2)n1` (stereo not shown) [I-1066], in that order: “A (A (>75% o))” and less than 100 nM.
On to `Cc1cc(S(=O)(=O)NCCO[C@H]2C[C@H](CN3CCC(c4ccc5c(c4)n(C)c(=O)n5C4CCC(=O)NC4=O)CC3)C2)ccc1Nc1ncc2cc(Cl)c(=O)n(C3CCCC3)c2n1` (stereo partly shown) [I-429], for which the “CDK2 degradation 14 h: Average Dmax %” value is “A (A (>75% o))” and the DC50 was less than 100 nM.
`Cc1cc(S(=O)(=O)NC2CCC(CN3CCN(c4ccc(C5CCC(=O)NC5=O)cc4F)C(C)C3)CC2)ccc1Nc1ncc(C(F)(F)F)c(N2CCCC(C)(O)C2)n1` (stereo not shown) [I-1137]: the “CDK2 degradation 14 h: Average Dmax %” value is “A (A (>75% o))” and the DC50 was less than 100 nM.
For `Cc1cc(S(=O)(=O)C2CC3(CCN(CC4CCN(c5ccc6c(c5F)n(C)c(=O)n6C5CCC(=O)NC5=O)CC4)CC3)C2)ccc1Nc1ncc2c(n1)N(C1CCCC1)C(=O)N(C)C2` (stereo not shown) [I-125], in that order: “A (A (>75% o))” and less than 100 nM.
For `Cc1cc(S(=O)(=O)C2CC3(CCN(CC4CCN(c5cnc6c(c5)c(C)cn6C5CCC(=O)NC5=O)CC4)CC3)C2)ccc1Nc1ncc2cc(Cl)c(=O)n(C3CCCC3)c2n1` (stereo not shown) [I-305], in that order: “A (A (>75% o))” and 100 to 500 nM.
For `Cc1cc(S(=O)(=O)NC2CC(N3CCN(CC4CCN(c5ccc(N6CCC(=O)NC6=O)c(Cl)c5)CC4)CC3)C2)ccc1Nc1ncc(C(F)(F)F)c(N2CCCC(C)(O)C2)n1` (stereo not shown) [I-721], in that order: “A (A (>75% o))” and less than 100 nM.
`Cc1cc(S(=O)(=O)C2CCC3(CC2)CN(CC2CCN(c4cccc5c4n(C)c(=O)n5C4CCC(=O)NC4=O)CC2)C3)ccc1Nc1ncc2cc(Cl)c(=O)n(C3CCCC3)c2n1` (stereo not shown) [I-66]: the “CDK2 degradation 14 h: Average Dmax %” value is “A (A (>75% o))” and the DC50 lay in the range of 100 to 500 nM.
Turning to `Cc1cc(S(=O)(=O)NCCOCCOCCOCCOCCCc2ccc3c(c2)n(C)c(=O)n3C2CCC(=O)NC2=O)ccc1Nc1ncc2c(n1)N(C1CCCC1)C(=O)C21CC1` (stereo not shown) [I-974], the “CDK2 degradation 14 h: Average Dmax %” value is “A (A (>75% o))” and the DC50 is less than 100 nM.
For `Cc1cc(S(=O)(=O)NCCO[C@H]2CC[C@H](CN3CCC(c4ccc5c(c4)n(C)c(=O)n5C4CCC(=O)NC4=O)CC3)CC2)ccc1Nc1ncc2cc(Cl)c(=O)n(C(C)C)c2n1` (stereo partly shown) [I-440], in that order: “A (A (>75% o))” and less than 100 nM.
For `Cc1cc(S(=O)(=O)NC2(C)CCN(CC3CCN(c4ccc(C5CCC(=O)NC5=O)c(Cl)c4)CC3)CC2)ccc1Nc1ncc(C(F)(F)F)c(N2CCC[C@](C)(O)C2)n1` (stereo partly shown) [I-801], in that order: “A (A (>75% o))” and less than 100 nM.
For `Cc1cc(S(=O)(=O)N2CCC(CN(C)C3CCN(c4cccc5c4n(C)c(=O)n5C4CCC(=O)NC4=O)CC3)CC2)ccc1Nc1nc(OC2CCCCC2)c2nc[nH]c2n1` (stereo not shown) [I-970], in that order: “A (A (>75% o))” and less than 100 nM.
As to `CC(C1CCN(c2ccc(C3CCC(=O)NC3=O)c(F)c2)CC1)N1CCC(NS(=O)(=O)c2ccc(Nc3ncc(C(F)(F)F)c(N4CCCC(C)(O)C4)n3)c(F)c2)C(F)C1` (stereo not shown) [I-1067], the “CDK2 degradation 14 h: Average Dmax %” value is “A (A (>75% o))” and the DC50 was less than 100 nM.
For the molecule `Cc1cc(S(=O)(=O)NCCOCCOCCNC(=O)COc2ccc(C3CCC(=O)NC3=O)cc2)ccc1Nc1ncc2cc(Cl)c(=O)n(C3CCCC3)c2n1` (stereo not shown) [I-401], the “CDK2 degradation 14 h: Average Dmax %” value was “B (B (>50% -75%))” and the DC50 is less than 100 nM.
For `Cc1cc(S(=O)(=O)C2CC3(CCN(CC4CCN(c5ccc6c(c5F)n(C)c(=O)n6C5CCC(=O)NC5=O)CC4)CC3)C2)ccc1Nc1cc2c(ccc(=O)n2C2CCCC2)cn1` (stereo not shown) [I-286], in that order: “A (A (>75% o))” and less than 100 nM.
